Like-named read-outs stand apart in the source and are kept apart here. Peptide text beside a SMILES is read from it. * marks the point of attachment. Cbz = O=C(OCc1ccccc1)*

One may read the inhibition as the relative decrease from the control value, in per cent. Read a low inhibition as little suppression. One may read the IC50 as the concentration needed to halve the response being measured. One may read the Ki as a dissociation constant, usually derived from enzyme kinetics or from competition with a known ligand.

Holding throughout (format): biochemical, bovine
Assay [1] deals with T1, multicatalytic proteinase complex (MPC) (Bos taurus, UniProt Q2TBP0+Q32KL2+Q3MHN0).
T1 construct: The MPC was isolated from frozen bovine pituitaries; tissue PelFreeze, Inc. (Rogers, Ark.) (supplier of the tissue; the enzyme was purified in house); host or cells: bovine pituitaries
The assay can be described thus: β-casein degradation by the MPC, HPLC. The following applies: 50 μM inhibitor, MPC 5.0 μg. How it is done:
(§1) The MPC was isolated from frozen bovine pituitaries, obtained from PelFreeze, Inc. (Rogers, Ark.) essentially as described in Orlowski & Michaud, Biochemistry 28:9270-9277 (1989), incorporated herein by reference.
In vitro protein degrading activity of the MPC, and the effects of the various inhibitors of the present invention on such activity, was determined using β-casein and histone H3 as proteolytic substrates. For determining protein degrading activity in the presence and absence of inhibitors, incubation mixtures contained Tris-HCl buffer (0.05M, pH 8.0), β-casein or histone H3, 20 mM Mg^2+ where indicated, and inhibitor dissolved in dimethylsulfoxide, where indicated. In control samples, the inhibitor was replaced by an equal volume of dimethylsulfoxide alone.
In order to measure proteolysis by the MPC, and its inhibition by the inhibitors of the invention, aliquots of the reaction mixtures were removed after various incubation times and subjected to HPLC on a Deltapak column (C4; 5 μm; 300 A; 3.9×150 mm Waters). Elution of histone H3 was carried out with a linear gradient over 30 min. established between 30 and 50% acetonitrile (v/v) in water containing 0.1% trifluoroacetic acid (v/v) at a flow rate of 1 ml/min. Elution of β-casein was carried with a linear gradient established between 10 and 45% acetonitrile (v/v) in water containing 0.1% trifluoroacetic acid (v/v). The rate of protein degradation was determined by measuring the decrease of the peak height of the protein compared with controls in which the enzyme was omitted. Alternatively degradation of the proteins was determined by integrating the area under the peak of the protein at time zero and determining the decrease of the area after incubation with the enzyme.
FIG. 1 depicts the inhibition of β-casein degradation by Cbz-Gly-Pro-Ala-Leu-CHO. HPLC analyses were carried out on samples that had been incubated in the absence and presence of the inhibitor. Incubation mixtures contained β-casein (200 μg), 20 mM Mg^2+, MPC (30 μg) and various concentrations of, inhibitor, if used, in 2 μl of Me2 SO. […]

For assay [2], the target named is T2, PGPH component of the multicatalytic proteinase complex (MPC) (Bos taurus, UniProt Q3MHN0).
T2 construct: The MPC was isolated from frozen bovine pituitaries; tissue PelFreeze, Inc. (Rogers, Ark.) (supplier of the tissue; the enzyme was purified in house); host or cells: bovine pituitaries
The experiment in a line: PGPH activity of the MPC with Cbz-Leu-Leu-Glu-2NA; IC50. The following applies: substrate concentration of 0.64 mM; absence of SDS; read-out: IC50, PGPH activity.
From the text: as §1
(§2) The substrates Cbz-Gly-Gly-Leu-pNA, Cbz-D-Ala-Leu-Arg-2NA and Cbz-Leu-Leu-Glu-2NA were used to determine the activities of the ChT-L, T-L and PGPH components of the MPC, respectively, as previously described by Wilk and Orlowski, J. Neurochem. 35:1172-1182 (1980) and J. Neurochem 40:842-849 (1983), where pNA is p-nitroaniline and 2NA is 2-naphthylamide.The rate of release of the chromogenic group (aromatic amine) was measured after diazotization (Goldbarg & Rutenburg, Cancer 11:283-291 (1958) Bratton & Marshall, J. Biol. Chem. 128:537-550 (1939)).
(§3) Reaction mixtures contained 0.4 to 0.8 mM substrate, Tris-HCl buffer (0.05M; pH 8.0) and enzyme (1 to 3 μg) in a final volume of 0.25 ml. Incubations were at 37° C. The reactions were stopped by addition of an equal volume of 10% trichloroacetic acid and diazotization was then carried out.
Due to the sigmoidal relationship between reaction rate and substrate concentration for the PGPH activity, only IC50 values (inhibitor concentration giving 50% inhibition) at a substrate concentration of 0.64 mM were determined. […] Some inhibition of the ChT-L activity was also observed, although the Ki for this component was almost 20 times higher than that for the other three activities. […] Indeed, at the concentrations used, each of the inhibitors produced some activation of the T-L activity (data not shown).

The target in assay [3] is T3, ChT-L component of the multicatalytic proteinase complex (MPC) (Bos taurus, UniProt Q32KL2).
T3 construct: The MPC was isolated from frozen bovine pituitaries; tissue PelFreeze, Inc. (Rogers, Ark.) (supplier of the tissue; the enzyme was purified in house); host or cells: bovine pituitaries
The assay can be described thus: ChT-L activity of the MPC with Cbz-Gly-Gly-Leu-pNA; Ki by Dixon plots.
From the text: as §1, §2, §3
(§4) Inhibition constant (K1) values for the inhibitors of the present invention towards the various proteolytic activities of the MPC were determined by the method of Dixon, Biochem. J. 55:170-171 (1953). Plots of 1/v vs [I] were made at three (3) different synthetic substrate concentrations and six (6) different inhibitor concentrations [I]. Linear regression analysis gave generally correlation coefficients better than 0.99.
(§5) Inhibition was tested with and without preincubation of the MPC with the inhibitors of the invention. No increase in inhibition was observed after preincubation of the enzyme with the inhibitor for up to 30 min, indicating absence of slow binding phenomena and a rapid equilibration between enzyme and inhibitor.
(§6) Table II provides a summary of the Ki measurements for the various peptidyl aldehydes of the invention synthesized in accordance with Examples 2 and 3.

Assay [4] concerns the target T4, BrAAP component of the multicatalytic proteinase complex (MPC) (Bos taurus, UniProt Q2TBP0+Q32KL2+Q3MHN0).
T4 construct: The MPC was isolated from frozen bovine pituitaries; tissue PelFreeze, Inc. (Rogers, Ark.) (supplier of the tissue; the enzyme was purified in house); host or cells: bovine pituitaries
The experiment in a line: Activity of the BrAAP component of the MPC, coupled two step reaction with aminopeptidase N; Ki by Dixon plots.
From the text: as §1
Cbz-Gly-Pro-Ala-Leu-Gly-pAB and Cbz-Gly-Pro-Ala-Gly-Gly-pAB, where pAB is p-aminobenzoate, were used as convenient substrates for the determination of the activity of the BrAAP and SNAAP components respectively. The BrAAP component cleaves exclusively the Leu-Gly bond in Cbz-Gly-Pro-Ala-Leu-Gly-pAB, whereas the SNAAP component cleaves the Gly-Gly bond in Cbz-Gly-Pro-Ala-Gly-Gly-pAB.
A coupled two step reaction in the presence of excess aminopeptidase N (AN) was used for the determination of the BrAAP and SNAAP activities as described previously (Orlowski et al., Biochemistry 32:1563-1572 (1993)). Aminopeptidase N was purified from hog kidneys as described by Pfleiderer, Meth. Enzymol. 19:514-521 (1970) and freed from the contaminating metalloendopeptidase (EC 3.4.24.11) as previously described (Almenoff & Orlowski, Biochemistry 22:590-599 (1983)).
as §4, §5, §6

`CC(C)C[C@@H](C=O)NC(=O)[C@H](Cc1ccccc1)NC(=O)[C@@H]1CCCN1C(=O)CNC(=O)OCc1ccccc1` [Cbz-Gly-Pro-Phe-Leu-CHO] (Cbz-GPFL-aldehyde): the inhibition at 50 µM turned out to be 94% in assay [1] (β-casein 160 μg/ml, no Mg2+) and 89% in assay [1] (β-casein 1000 μg/ml, 20 mM Mg2+). Further, the IC50 in assay [2] turned out to be 3100 nM. In addition, in assay [3] (ChT-L vs BrAAP, SNAAP, PGPH), the “Ki for ChT-L activity, times higher than that for the other three activities” value is approximately 20 times. For the same compound, the Ki in assay [3] (substrate Cbz-Gly-Gly-Leu-pNA (0.1 to 0.4 MM), mean of 3 to 6 experiments ± SEM) was found to be 40500 ± 8800 nM; in assay [4] (MPC exposed to DCI (10 μM), average of three determinations, read-out: Ki, BrAAP activity of the DCI-treated enzyme), 1670 nM; in assay [4] (substrate Cbz-Gly-Pro-Ala-Leu-Gly-pAB (1 to 4 mill), mean of 3 to 6 experiments ± SEM, read-out: Ki, BRAAP component), 1500 ± 170 nM.

For the origin of these results see patent US5580854A, “Substrate-related peptidyl-aldehyde inhibitors of the proteolytic activity of the multicatalytic proteinase complex” (Mount Sinai School of Medicine of The City University of …, priority 1994, dated 1996).
